For 27 molecules, EC50 results are on record in BindingDB's records for doi:10.1021/jm801354e (University of Illinois At Chicago, 2009).

pEC50: −log10 of the molar value. Counter-ions that a name gives are not always drawn.

For assay [1], the target named is T1, 5-hydroxytryptamine receptor 2C (Homo sapiens, UniProt P28335).
T1 sequence (P28335 whole entry): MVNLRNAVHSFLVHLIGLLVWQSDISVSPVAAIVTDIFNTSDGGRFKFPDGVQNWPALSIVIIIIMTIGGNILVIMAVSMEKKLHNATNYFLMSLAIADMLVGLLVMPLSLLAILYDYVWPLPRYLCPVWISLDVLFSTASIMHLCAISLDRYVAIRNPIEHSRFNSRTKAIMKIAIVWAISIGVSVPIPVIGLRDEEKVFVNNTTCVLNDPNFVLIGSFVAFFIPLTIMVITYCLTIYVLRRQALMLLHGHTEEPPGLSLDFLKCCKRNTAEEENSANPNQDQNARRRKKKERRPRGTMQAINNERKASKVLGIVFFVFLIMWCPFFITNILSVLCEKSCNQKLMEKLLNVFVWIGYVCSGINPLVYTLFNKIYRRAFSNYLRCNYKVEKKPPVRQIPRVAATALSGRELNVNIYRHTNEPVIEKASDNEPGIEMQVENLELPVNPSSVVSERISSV
Description: Agonist activity at human 5HT2C receptor expressed in HEK293 cells assessed as calcium flux by FLIPR assay. For orientation: Calcium flux is commonly read through the fluorescence of an indicator in the cells.

For assay [2], the target named is 5-hydroxytryptamine receptor 2A (Homo sapiens, UniProt P28223). The assay can be described thus: Agonist activity at human 5HT2A receptor expressed in HEK293 cells assessed as calcium flux by FLIPR assay.
The target in assay [3] is 5-hydroxytryptamine receptor 2B (Homo sapiens, UniProt P41595). The assay can be described thus: Agonist activity at human 5HT2B receptor expressed in HEK293 cells assessed as calcium flux by FLIPR assay.

As usually defined, the pEC50 is the EC50 on a negative log10 scale, so that one unit is a factor of ten.

Chain of 5-hydroxytryptamine receptor 2B (P41595 whole entry): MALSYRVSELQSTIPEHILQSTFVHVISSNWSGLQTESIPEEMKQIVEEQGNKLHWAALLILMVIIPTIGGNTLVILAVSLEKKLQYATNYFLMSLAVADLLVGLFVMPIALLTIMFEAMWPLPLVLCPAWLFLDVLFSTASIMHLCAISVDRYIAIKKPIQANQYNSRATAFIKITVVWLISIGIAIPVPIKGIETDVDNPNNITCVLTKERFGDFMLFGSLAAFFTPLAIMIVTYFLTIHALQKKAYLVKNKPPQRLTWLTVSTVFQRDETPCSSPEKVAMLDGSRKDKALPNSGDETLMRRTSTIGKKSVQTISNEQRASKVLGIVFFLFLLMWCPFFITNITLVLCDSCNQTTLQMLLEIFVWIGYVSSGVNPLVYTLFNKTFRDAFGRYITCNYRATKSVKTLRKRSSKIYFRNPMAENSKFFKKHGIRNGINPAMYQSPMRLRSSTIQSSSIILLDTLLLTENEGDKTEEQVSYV
Chain of 5-hydroxytryptamine receptor 2A (P28223 whole entry): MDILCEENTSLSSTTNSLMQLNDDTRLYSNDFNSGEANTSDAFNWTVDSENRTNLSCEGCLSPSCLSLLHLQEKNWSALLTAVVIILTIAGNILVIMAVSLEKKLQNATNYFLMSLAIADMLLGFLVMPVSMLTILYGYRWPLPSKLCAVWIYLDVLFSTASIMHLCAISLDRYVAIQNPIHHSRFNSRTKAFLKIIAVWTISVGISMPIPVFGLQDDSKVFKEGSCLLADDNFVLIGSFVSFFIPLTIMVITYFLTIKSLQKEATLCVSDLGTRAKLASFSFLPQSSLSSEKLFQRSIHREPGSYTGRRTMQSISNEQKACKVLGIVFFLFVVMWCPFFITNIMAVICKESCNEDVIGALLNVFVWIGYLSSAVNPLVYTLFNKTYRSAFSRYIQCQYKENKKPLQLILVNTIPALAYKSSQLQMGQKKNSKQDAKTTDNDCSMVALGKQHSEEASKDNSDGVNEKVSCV

Take `Cc1cc([C@H]2C[C@@H]2CN)ccc1F` (relative stereo) [trans-[2-(4-Fluoro-3-methylphenyl)cyclopropyl]methylamine Hydrochloride]: the results for the pEC50 in assay [1], in assay [2] and in assay [3] were 8.22, 6.63 and 8.31, respectively.
The matching figures for `Cc1ccc([C@H]2C[C@@H]2CN)cc1C` (relative stereo) [trans-[2-(3,4-Dimethylphenyl)cyclopropyl]methylamine Hydrochloride]: 7.46, 5.62 and 7.92.
Consider `NC[C@H]1C[C@@H]1c1c(F)cccc1F` (relative stereo) [trans-[2-(2,6-Difluorophenyl)cyclopropyl]methylamine Hydrochloride], for which the pEC50 is 7.06 in assay [1], below 6.00 in assay [2] and 5.48 in assay [3].
With `Cc1ccc([C@H]2C[C@@H]2CN)c(Br)c1` (relative stereo) [trans-[2-(2-Bromo-4-methylphenyl)cyclopropyl]methylamine Hydrochloride], the pEC50 in assay [1] is 7.01; in assay [2], 6.33; in assay [3], 6.94.
For the molecule `CNC[C@H]1C[C@@H]1c1ccccc1` (relative stereo) [trans-N-Methyl-(2-phenylcyclopropylmethyl)amine], the results for the negative-log EC50 (pEC50) in assay [1] and in assay [3] were 6.20 and below 5.00, respectively.
On to `COc1ccc([C@H]2C[C@@H]2CN)cc1` (relative stereo) [trans-[2-(4-Methoxyphenyl)cyclopropyl]methylamine Hydrochloride], for which, in assay [1], the pEC50 was 6.04.
As to `NC[C@H]1C[C@@H]1c1cccc(F)c1` (relative stereo) [trans-[2-(3-Fluorophenyl)cyclopropyl]methylamine Hydrochloride], the pEC50 is 8.48 in assay [1], 6.36 in assay [2] and 8.44 in assay [3].
Turning to `NC[C@H]1C[C@@H]1c1cccc(C(F)(F)F)c1` (relative stereo) [trans-[2-(3-Trifluoromethylphenyl)cyclopropyl]methylamine Hydrochloride], the pEC50 is 7.52 in assay [1], 5.83 in assay [2] and 7.11 in assay [3].
As to `Cc1cccc(Cl)c1[C@H]1C[C@@H]1CN` (relative stereo) [trans-[2-(2-Chloro-6-methylphenyl)cyclopropyl]methylamine Hydrochloride], the pEC50 in assay [1] was 8.46; in assay [2] it was 6.14; in assay [3] it was 8.15.
`NC[C@H]1C[C@@H]1c1cccc(Br)c1` (relative stereo) [trans-[2-(3-Bromophenyl)cyclopropyl]methylamine Hydrochloride]: the negative logarithm of the EC50 (pEC50) in assay [1] was 7.85; in assay [2], 5.77; in assay [3] it was 6.85.
Take `NC[C@H]1C[C@@H]1c1ccc(F)c(F)c1` (relative stereo) [trans-[2-(3,4-Difluorophenyl)cyclopropyl]methylamine Hydrochloride]: the values for the pEC50 in assay [1], in assay [2] and in assay [3] were 8.05, 6.24 and 7.55, respectively.
With `NC[C@H]1C[C@@H]1c1ccccc1Cl` (relative stereo) [trans-[2-(2-Chlorophenyl)cyclopropyl]methylamine Hydrochloride], the pEC50 was 8.29 in assay [1], 6.77 in assay [2] and 7.49 in assay [3].
With `NC[C@H]1C[C@@H]1c1ccc2ccccc2c1` (relative stereo) [trans-(2-Naphthalen-2-ylcyclopropyl)methylamine Hydrochloride], the pEC50 was 5.54 in assay [1] and 6.29 in assay [3].
Turning to `NC[C@H]1C[C@@H]1c1ccc(F)cc1F` [trans-[2-(2,4-Difluorophenyl)cyclopropyl]methylamine Hydrochloride], the pEC50 in assay [1] is 7.38; in assay [2], 6.26; in assay [3], 6.38.
Regarding `NC[C@H]1C[C@H]1c1ccccc1` (racemic) [(+/-)-Cis-(2-Phenylcyclopropyl)methylamineHydrochloride], the pEC50 in assay [1] is 5.52; in assay [3], below 5.00.
Consider `NC[C@H]1C[C@@H]1c1ccc(Br)cc1` (relative stereo) [trans-[2-(4-Bromophenyl)cyclopropyl]methylamine Hydrochloride], for which the pEC50 is 6.86 in assay [1], below 6.00 in assay [2] and 5.56 in assay [3].
For `NC[C@H]1C[C@@H]1c1cccc(Cl)c1Cl` (relative stereo) [trans-[2-(2,3-Dichlorophenyl)cyclopropyl]methylamine Hydrochloride], the pEC50 was 7.96 in assay [1], 6.46 in assay [2] and 7.85 in assay [3].
On the same counts, the results for `Cc1ccccc1[C@H]1C[C@@H]1CN` (relative stereo) [trans-[2-(2-Methylphenyl)cyclopropyl]methylamine Hydrochloride] are 7.64, 5.79 and 7.28.
The matching figures for `NC[C@H]1C[C@@H]1c1ccc(Cl)cc1` (relative stereo) [trans-[2-(4-Chlorophenyl)cyclopropyl]methylamine Hydrochloride]: 7.12, 5.35 and 6.39.
As to `NC[C@H]1C[C@@H]1c1ccccc1C(F)(F)F` (relative stereo) [trans-[2-(2-Trifluoromethylphenyl)cyclopropyl]methylamine Hydrochloride], the pEC50 in assay [1] was 7.31; in assay [3], 6.46.
With `NC[C@H]1C[C@@H]1c1ccccc1O` (relative stereo) [trans-[2-(2-Hydroxyphenyl)cyclopropyl]methylamine Hydrochloride], the figures for the pEC50 in assay [1], in assay [2] and in assay [3] were 6.79, 6.29 and 6.31, respectively.
The matching figures for `NC[C@H]1C[C@@H]1c1cccc(O)c1` (relative stereo) [trans-[2-(3-Hydroxyphenyl)cyclopropyl]methylamine Hydrochloride]: 8.48, 6.61 and 8.26.
On the same counts, the results for `NC[C@H]1C[C@@H]1c1cccc(Cl)c1` (relative stereo) [trans-[2-(3-Chlorophenyl)cyclopropyl]methylamine Hydrochloride] are 8.00, 5.72 and 7.23.
The matching figures for `Cc1cccc([C@H]2C[C@@H]2CN)c1C` (relative stereo) [trans-[2-(2,3-Dimethylphenyl)cyclopropyl]methylamine Hydrochloride]: 8.15, 6.44 and 8.08.
On to `c1ccc(CNC[C@H]2C[C@@H]2c2ccccc2)cc1` (relative stereo) [trans-N-Benzyl-(2-phenylcyclopropylmethyl)amine], for which the pEC50 in assay [1] is 5.24.
As for `NC[C@H]1C[C@@H]1c1ccccc1F` [trans-[2-(2-Fluorophenyl)cyclopropyl]methylamine Hydrochloride], the results for the pEC50 in assay [1] and in assay [3] were 7.54 and 7.16, respectively.
For the molecule `NC[C@H]1C[C@@H]1c1ccc(C(F)(F)F)cc1` (relative stereo) [trans-[2-(4-Trifluoromethylphenyl)cyclopropyl]methylamine Hydrochloride], the pEC50 is 6.11 in assay [1] and below 6.00 in assay [3].
